Assay [1] relates to DND-41 (acute lymphoblastic leukemia). Description: Cytostatic activity (cell proliferation). The class given is cell-based. Here is the method: (§1) The 50% cytostatic inhibitory concentration (IC50) causing a 50% decrease in cell proliferation was determined for all obtained compounds toward 9 cancerous cell lines, i.e.,: Capan-1 (pancreatic adenocarcinoma), Hap1 (chronic myeloid leukemia), HCT-116 (colorectal carcinoma), NCI-H460 (lung carcinoma), DND-41 (acute lymphoblastic leukemia), HL-60 (acute myeloid leukemia), K-562 (chronic myeloid leukemia), MM.1S (multiple myeloma), Z-138 non-Hodgkin lymphoma), as well as normal retina (non-cancerous) cells (hTERT RPE-1). Docetaxel, etoposide and stauroporine were used as the reference compounds.
(§2) All assays were performed in 96-well microtiter plates. To each well was added (5–7.5) × 10^4 tumor cells and a given amount of the tested compound. The cells were allowed to proliferate at 37 °C in a humidified, CO2-controlled atmosphere. At the end of the incubation period, the cells were counted in a Coulter counter. The IC50 (50% inhibitory concentration) was defined as the concentration of the compound that inhibited cell proliferation by 50%.

Assay [2] relates to hTERT RPE-1 normal retina (non-cancerous) cells. Description: Cytostatic activity (cell proliferation). The class given is cell-based. The method, then: as §1, §2
For assay [3], the system named is NCI-H460 (lung carcinoma). The experiment in a line: Cytostatic activity (cell proliferation). The class given is cell-based. Here is the method: as §1, §2
In assay [4] the test system is HCT-116 (colorectal carcinoma). The experiment in a line: Cytostatic activity (cell proliferation). The class given is cell-based. The method, then: as §1, §2
Assay [5] deals with Hap1 (chronic myeloid leukemia). The experiment in a line: Cytostatic activity (cell proliferation). The class given is cell-based. The method, then: as §1, §2
Another assay deals with S. aureus ATCC 25923. The experiment in a line: Oxacillin MIC reduction (adjuvant) microdilution assay. It is filed as cell-based, Staphylococcus aureus. Conditions: for Activity Gain [A]: MIC(OXA)/MIC(OXA+Cpd), compound 0.5 mM, adjuvant activity if A ≥ 4. The method, then:
(§3) Since the lack of direct antibacterial activity of the obtained azetidinones was observed, all isomers trans and cis were investigated on their “adjuvant” properties, i.e., an ability to enhance the effectiveness of antibiotics against S. aureus strains. Thus, the compounds were tested in combination with the known β-lactam antibiotic, oxacillin, in the microdilution assays. The ability of the tested azetidinones to reduce minimum inhibitory concentration (MIC) of oxacillin against both, the referenced and the resistant S. aureus strains, was assessed.
(§4) The in-vitro antibacterial property and the capacity of tested compounds to increase the efficacy of antibiotics were evaluated in two Staphylococcus aureus strains, i.e., the reference clonal complex 5 (CC5) methicillin-susceptible (MSSA) strain ATCC 25923, and the methicillin-resistant (MRSA) extensively drug-resistant (XDR) clinical isolate HEMSA-5 [46].
(§5) In order to assess the increase of antibiotic efficacy, the assays were conducted by determining if/to what extent the investigated compounds reduce MICs of oxacillin by means of a serial dilution broth microplate method, in accordance with the CLSI requirements. The concentrations of compounds used in the MICs reduction assay were no greater than 1/4 of their respective MICs to ensure that cell viability was not affected by the intrinsic antibacterial activity of the molecules. Serial two-fold dilutions of oxacillin (Sigma-Aldrich; St. Louis, MI, USA, cat. no. 28221), were prepared in […] of the Mueller–Hinton broth (Merck; Darmstadt, Germany, cat. no. 1102930500). Suitable concentrations of the compounds (total volume […]) were then added. Bacterial suspensions were diluted to OD ¼ 0.5. The resulting suspensions were then diluted 1:100 and added in the volume of […] into the oxacillin serial dilutions with the compounds. The results were read after 20-h incubation at 37 °C.
(§6) The ability of compounds to improve antibiotic efficacy was expressed as the activity gain [A] parameter calculated according to the formula given in Figure 10.
(§7) Figure 10 Activity gain. MICAnt corresponds to the MIC of oxacillin in the absence of a compound tested and MICAnt + Comp refers to the MIC of oxacillin paired with a compound tested.

The next assay has as its system MRSA HEMSA 5. Described as above. Conditions: for Activity Gain [A]: MIC(OXA)/MIC(OXA+Cpd), compound 0.5 mM, adjuvant activity if A ≥ 4. It is filed as cell-based, Staphylococcus aureus. Here is the method:
as §3, §4, §5, §6, §7

The subject of assay [6] is Capan-1 (pancreatic adenocarcinoma). Description: Cytostatic activity (cell proliferation). It is filed as cell-based. The method, then: The 50% cytostatic inhibitory concentration (IC50) causing a 50% decrease in cell proliferation was determined for all obtained compounds toward 9 cancerous cell lines, i.e.,: Capan-1 (pancreatic adenocarcinoma), Hap1 (chronic myeloid leukemia), HCT-116 (colorectal carcinoma), NCI-H460 (lung carcinoma), DND-41 (acute lymphoblastic leukemia), HL-60 (acute myeloid leukemia), K-562 (chronic myeloid leukemia), MM.1S (multiple myeloma), Z-138 non-Hodgkin lymphoma), as well as normal retina (non-cancerous) cells (hTERT RPE-1).
All assays were performed in 96-well microtiter plates. To each well was added (5–7.5) × 10^4 tumor cells and a given amount of the tested compound. The cells were allowed to proliferate at 37 °C in a humidified, CO2-controlled atmosphere. At the end of the incubation period, the cells were counted in a Coulter counter.

Where [7] appears, read: oxacillin MIC in presence of 0.5 mM compound.

Read-outs that look alike come from different tables or passages of the source.

Consider `CCOP(=O)(OCC)[C@@H]1[C@H](c2ccc(F)c(C)c2)C(=O)N1C` (relative stereo) [cis-10f, cis-N-methyl-3-(4-fluoro-3-methylphenyl)-4-(diethoxyphosphoryl)azetidin-2-one], for which the IC50 in assay [1] (DND41) is more than 100 µM; in assay [2] (hTERT-RPE1), more than 100 µM; in assay [3] (Homo sapiens, NCI-H460), 87 µM; in assay [4] (Homo sapiens, HCT-116), more than 100 µM; in assay [5] (Homo sapiens, HAP1), 97.9 µM; in assay [6] (Homo sapiens, CAPAN-1) it was 61.4 µM. Moreover, the “Activity Gain [A]” value with S. aureus ATCC 25923 is recorded as 0.5; in the assay with MRSA HEMSA 5, 1–2.

As for `CCOP(=O)(OCC)[C@H]1[C@H](c2ccc(F)cc2F)C(=O)N1Cc1ccccc1` (relative stereo) [trans-11e, trans-N-benzyl-3-(2,4-difluorophenyl)-4-(diethoxyphosphoryl)azetidin-2-one], the IC50 in assay [1] (DND41) was more than 100 µM; in assay [2] (hTERT-RPE1), 25.6 µM; in assay [3] (Homo sapiens, NCI-H460) it was 24.4 µM; in assay [4] (Homo sapiens, HCT-116) it was 36.6 µM; in assay [5] (Homo sapiens, HAP1), 42.9 µM; in assay [6] (Homo sapiens, CAPAN-1), 36.5 µM. For the same compound, the “Activity Gain [A]” value in the assay with S. aureus ATCC 25923 was 0.5; in the assay on MRSA HEMSA 5, 1.

As to `CCOP(=O)(OCC)[C@H]1[C@H](c2ccc(F)cc2)C(=O)N1Cc1ccccc1` (relative stereo) [trans-11d, trans-N-benzyl-3-(4-fluorophenyl)-4-(diethoxyphosphoryl)azetidin-2-one], the IC50 in assay [1] (DND41) is more than 100 µM; in assay [2] (hTERT-RPE1), 73 µM; in assay [3] (Homo sapiens, NCI-H460), 28.4 µM; in assay [4] (Homo sapiens, HCT-116), 44.3 µM; in assay [5] (Homo sapiens, HAP1) it was 48.3 µM; in assay [6] (Homo sapiens, CAPAN-1) it was 35.8 µM. The “Activity Gain [A]” value in the assay on S. aureus ATCC 25923 is reported as 0.5; with MRSA HEMSA 5 it was 2.

On to `CCOP(=O)(OCC)[C@@H]1[C@H](c2ccc(F)cc2F)C(=O)N1C` (relative stereo) [cis-10e, cis-N-methyl-3-(2,4-difluorophenyl)-4-(diethoxyphosphoryl)azetidin-2-one], for which the IC50 is more than 100 µM in assay [1] (DND41); more than 100 µM in assay [2] (hTERT-RPE1); 92.6 µM in assay [3] (Homo sapiens, NCI-H460); more than 100 µM in assay [4] (Homo sapiens, HCT-116); more than 100 µM in assay [5] (Homo sapiens, HAP1); 56.8 µM in assay [6] (Homo sapiens, CAPAN-1). Also, the “Activity Gain [A]” value with S. aureus ATCC 25923 and with MRSA HEMSA 5 was 1 each time.

As for `CCOP(=O)(OCC)[C@H]1[C@H](c2ccccc2)C(=O)N1Cc1ccccc1` (relative stereo) [trans-11a, trans-N-benzyl-3-phenyl-4-(diethoxyphosphoryl)azetidin-2-one], the IC50 was more than 100 µM in assay [1] (DND41); more than 100 µM in assay [2] (hTERT-RPE1); 50.9 µM in assay [3] (Homo sapiens, NCI-H460); more than 100 µM in assay [4] (Homo sapiens, HCT-116); 63.6 µM in assay [5] (Homo sapiens, HAP1); 61 µM in assay [6] (Homo sapiens, CAPAN-1). Further, the entries for the “Activity Gain [A]” value with S. aureus ATCC 25923 and in the assay with MRSA HEMSA 5 were less than 0.5 and 1–2, respectively.

Consider `CC(=O)O[C@@]12CO[C@@H]1C[C@H](O)[C@@]1(C)C(=O)[C@H](O)C3=C(C)[C@@H](OC(=O)[C@H](O)[C@@H](NC(=O)OC(C)(C)C)c4ccccc4)C[C@@](O)([C@@H](OC(=O)c4ccccc4)[C@H]21)C3(C)C` [Docetaxel, reference compound], for which the IC50 in assay [1] (DND41) was 1.63 µM; in assay [2] (hTERT-RPE1), 25 µM; in assay [3] (Homo sapiens, NCI-H460), 0.89 µM; in assay [4] (Homo sapiens, HCT-116), 0.25 µM; in assay [5] (Homo sapiens, HAP1), 1.19 µM; in assay [6] (Homo sapiens, CAPAN-1), 0.95 µM.

For `CCOP(=O)(OCC)[C@@H]1[C@H](c2ccc(F)cc2)C(=O)N1C` (relative stereo) [cis-10d, cis-N-methyl-3-(4-fluorophenyl)-4-(diethoxyphosphoryl)azetidin-2-one], the IC50 is more than 100 µM in assay [1] (DND41); more than 100 µM in assay [2] (hTERT-RPE1); 71 µM in assay [3] (Homo sapiens, NCI-H460); 86.5 µM in assay [4] (Homo sapiens, HCT-116); 70.3 µM in assay [5] (Homo sapiens, HAP1); more than 100 µM in assay [6] (Homo sapiens, CAPAN-1). The “Activity Gain [A]” value in the assay on S. aureus ATCC 25923 is recorded as 0.5; with MRSA HEMSA 5 it was 1.

Take `CCOP(=O)(OCC)[C@H]1[C@H](c2ccccc2F)C(=O)N1Cc1ccccc1` (relative stereo) [trans-11b, trans-N-benzyl-3-(2-fluorophenyl)-4-(diethoxyphosphoryl)azetidin-2-one]: the IC50 in assay [1] (DND41) was more than 100 µM; in assay [2] (hTERT-RPE1), more than 100 µM; in assay [3] (Homo sapiens, NCI-H460), 56.7 µM; in assay [4] (Homo sapiens, HCT-116) it was more than 100 µM; in assay [5] (Homo sapiens, HAP1), more than 100 µM; in assay [6] (Homo sapiens, CAPAN-1), 51.9 µM. Besides, the “Activity Gain [A]” value is listed as less than 0.5 with S. aureus ATCC 25923 and 1–2 in the assay with MRSA HEMSA 5.

Turning to `Cc1onc(-c2ccccc2)c1C(=O)N[C@@H]1C(=O)N2[C@@H]1SC(C)(C)[C@@H]2C(=O)O` [oxacillin, reference compound], the minimal inhibitory concentration (MIC) is 0.5 µg/mL with S. aureus ATCC 25923 (Staphylococcus aureus, ATCC25923, oxacillin alone, read-out: OXA MIC) and 512 µg/mL with MRSA HEMSA 5 (Staphylococcus aureus, oxacillin alone, read-out: OXA MIC).

For the compound `CCOP(=O)(OCC)[C@H]1[C@H](c2ccccc2)C(=O)N1C` (relative stereo) [trans-10a, trans-N-methyl-3-phenyl-4-(diethoxyphosphoryl)azetidin-2-one], the IC50 in assay [1] was more than 100 µM; in assay [2], more than 100 µM; in assay [3], 54.6 µM; in assay [4] it was more than 100 µM; in assay [5], more than 100 µM; in assay [6], 46.2 µM. Besides, the “Activity Gain [A]” value in the assay with S. aureus ATCC 25923 and in the assay on MRSA HEMSA 5 was 1 throughout. In addition, the results for the “OXA+ Cpd MIC” value in the assay with S. aureus ATCC 25923 (setting [7]) and in the assay with MRSA HEMSA 5 (setting [7]) were 0.5 µg/mL and 512 µg/mL, respectively.

Take `CCOP(=O)(OCC)[C@@H]1[C@H](c2ccccc2F)C(=O)N1C` (relative stereo) [cis-10b, cis-N-methyl-3-(2-fluorophenyl)-4-(diethoxyphosphoryl)azetidin-2-one]: the 50% inhibitory concentration (IC50) in assay [1] (DND41) was more than 100 µM; in assay [2] (hTERT-RPE1), more than 100 µM; in assay [3] (Homo sapiens, NCI-H460) it was 45.2 µM; in assay [4] (Homo sapiens, HCT-116), more than 100 µM; in assay [5] (Homo sapiens, HAP1) it was 14.5 µM; in assay [6] (Homo sapiens, CAPAN-1) it was 31.9 µM. Also, the “Activity Gain [A]” value in the assay on S. aureus ATCC 25923 was found to be 0.5; with MRSA HEMSA 5 it was 1.

Consider `COc1cc([C@@H]2c3cc4c(cc3[C@@H](O[C@@H]3O[C@@H]5CO[C@@H](C)O[C@H]5[C@H](O)[C@H]3O)[C@H]3COC(=O)[C@H]23)OCO4)cc(OC)c1O` [Etoposide, reference compound], for which the IC50 worked out at 0.06 µM in assay [1] (DND41); 0.23 µM in assay [2] (hTERT-RPE1); 1.35 µM in assay [3] (Homo sapiens, NCI-H460); 0.04 µM in assay [5] (Homo sapiens, HAP1); 0.15 µM in assay [6] (Homo sapiens, CAPAN-1).

For `CN[C@@H]1C[C@H]2O[C@@](C)([C@@H]1OC)n1c3ccccc3c3c4c(c5c6ccccc6n2c5c31)C(=O)NC4` [Stauroporine, reference compound], the 50% inhibitory concentration (IC50) was found to be 21.5 µM in assay [1]; 0.25 µM in assay [2]; 11.5 µM in assay [3]; 0.09 µM in assay [4]; 3.55 µM in assay [5].

By IC50 is commonly meant the concentration needed to halve the response being measured. Broadly, the MIC is the least concentration at which growth counts as inhibited.

(Values after publication PMC8348901, “Novel N-Substituted 3-Aryl-4-(diethoxyphosphoryl)azetidin-2-ones as Antibiotic Enhancers and Antiviral Agents in Search for a Successful Treatment of Complex Infections” (International Journal of Molecular Sciences, 2021).)
